Results on 87 molecules are retold here after a melting point compilation (Tetko et al.; mined from patent text by program, amines drawn as free bases though some values may be those of a salt).

Each structure is given as a SMILES string.

Broadly, the melting point is the temperature, or range, at which the solid turns liquid. `O=[N+]([O-])c1ccc(OCCCN2CCC(C(O)(c3ccc(F)cc3)c3ccc(F)cc3)CC2)cc1` yielded a melting point of 93.5 to 94.5 °C.

In turn, `CC(C)(C)OC(=O)C[C@H](NC(=O)c1cccc(NC(=O)Cc2ccc(C(=N)N)cc2)c1)C(=O)N[C@@H](Cc1ccccc1)C(=O)OC(C)(C)C` showed a melting point of 125 °C.

In the case of `CNc1cc(-n2cc(C(=O)O)c(=O)c3cc(F)c(NC)c(C)c32)c(F)cc1F`, the melting point was in the range of 220 to 222 °C.

`CC(c1cc(Cl)cc(Cl)c1O)c1cc(F)cc(Cc2cc(Cl)ccc2O)c1O` (configuration not stated) had a melting point of 166 °C.

Turning to `O=[N+]([O-])c1cn2c(n1)OC[C@@H](OCc1ccc(Cl)nn1)C2`, the melting point lay within 180 to 184 °C.

Take `Cc1ccc(C(=O)OCCOc2ccc(OC(F)(F)F)cc2)cc1`: the melting point was in the range of 76 to 77.5 °C.

For `O=C(c1ccc(Cl)c(Cl)c1)N1CCCC(c2cccs2)=N1`, the melting point fell in the range of 124 to 125 °C.

As for `COc1ccccc1[C@@]1(O)[C@@H]2CNC[C@@H]2C(c2ccccc2)(c2ccccc2)C[C@@H]1O`, the melting point is 230 °C.

In turn, `CCOC(=O)C1=C(S(=O)(=O)Cl)CCCC1` came in with a melting point of 31.5 to 32.5 °C.

As to `CN(N)C(=S)Nc1ccc(F)cc1`, the melting point lay in the range of 148 to 150 °C.

For `CCCCOC(=O)Cc1ccc(N2CCN(CCc3cc(C(C)(C)C)c(O)c(C(C)(C)C)c3)CC2)cc1`, the melting point is 103 to 105 °C.

`CCC(CC)n1nc(C)c2c(O)nc(C)nc21` showed a melting point of 202 to 203 °C.

Turning to `CC(C)NC(C)Cc1ccc(O)cn1` (configuration not stated), the melting point lay in the range of 135 to 138 °C.

Turning to `CCOC(=O)C=C1CN=C(c2ccccc2Cl)c2cc(Cl)ccc2N1`, the melting point lay within 103 to 105 °C.

As for `COc1ccc2c(c1Cl)Sc1ccccc1N2C(C)=O`, the melting point amounted to 136 °C.

`CN(C(=O)Cn1c(-c2ccc(C(F)(F)F)cc2)nc2cccnc21)c1ccccc1`: the melting point fell in the range of 158 to 159 °C.

In turn, `CN1CCN(C2=Nc3cc(Cl)cc4c3N(CC4)c3ccccc32)CC1` returned a melting point of 199 to 200 °C.

Regarding `COC(=O)c1c[nH]c(=O)c2ccccc12`, the melting point lay within 258 to 260 °C.

Molecule `CN1C(=O)C2CCCN2Cc2cc(Cl)ccc21` (configuration not stated) showed a melting point of 97 to 99 °C.

Regarding `N#Cc1c(CNC(=O)c2ccc(-n3cccc3)cc2)nn(-c2ccc(Cl)cc2Cl)c1-c1ccc(Cl)cc1`, the melting point came out at 121 °C.

In turn, `Cc1nccn1-c1nc(-c2ccc(Cl)cc2)c(CCCCO)s1` had a melting point of 98 to 99 °C.

With `COC(Nc1ccccc1)(OC)c1ccnc(C(=O)c2ccc(Cl)cc2)c1`, the melting point lay in the range of 137 to 138 °C.

The molecule `COc1cc2c(cc1OC)CC(N(C)CCCN1CCc3cc(OC)c(OC)cc3C(O)C1=O)CC2` (configuration not stated) returned a melting point of 141 to 143 °C.

In the case of `CCCCN1CC2CN(S(=O)(=O)c3ccc(NC(=O)c4ccc(C#N)cc4)cc3)CC(C1)C2(C)C`, the melting point was found to be 145 °C.

As to `Cc1c(Br)ccc(S(C)(=O)=O)c1C1=NOC(CCl)(CCl)C1`, the melting point lay within 144 to 145 °C.

In the case of `O=S1(=O)NC(C2CCCCC2)Nc2ccc(-c3ccccc3F)cc21` (configuration not stated), the melting point fell in the range of 249 to 250 °C.

Molecule `COC(=O)C1=C(C)Nc2c(c(C)nn2C)C1c1cccc([N+](=O)[O-])c1` (configuration not stated) came in with a melting point of 163 to 166 °C.

As to `OC(c1ccccc1F)c1cc(C(F)(F)F)nc2c(C(F)(F)F)cccc12` (configuration not stated), the melting point is 120 to 121 °C.

With `Cc1ccc2[nH]c(-c3ccc(S(N)(=O)=O)cc3)c(-c3ccccc3)c2c1`, the melting point is 242 to 244 °C.

Turning to `CCCCCCCCCCCCCCCCCCC1CNc2cc(C(=O)O)ccc21` (racemic), the melting point lay in the range of 112 to 114 °C.

In the case of `COc1cc(CCC(=O)O)ccc1OCc1oc(-c2ccc(C(F)(F)F)cc2)nc1C`, the melting point lay within 162 to 163 °C.

`C=C(c1cncn1Cc1ccccc1)C(c1cc(C)cc(C)c1)c1cc(C)cc(C)c1`: the melting point lay within 170 to 176 °C.

Regarding `Clc1ccc(CSC(CCc2ccccc2)Cn2ccnc2)cc1Cl` (configuration not stated), the melting point lay within 144 to 146 °C.

In turn, `CCCc1c(Br)sc2[nH]c(=O)c(=O)[nH]c12` registered a melting point of 269 to 271 °C.

On to `CC(C)(NCC(O)Cn1ccnc1)c1ccc(Cl)cc1` (configuration not stated), for which the melting point fell in the range of 89 to 91 °C.

Turning to `[N-]=[N+]=CC(=O)c1ccc(Br)c(S(N)(=O)=O)c1`, the melting point was 152 °C.

`COc1ccc(S(=O)(=O)Nc2ccccc2O)cc1` gave a melting point of 89 °C.

`COC(=O)c1cn(Cc2ccc(OCc3ccccc3)cc2)cc1-c1ccccc1` showed a melting point of 97 to 98 °C.

The molecule `CCCC[C@@H]1CCc2ccc(OCc3ccc4ccccc4n3)cc2[C@H]1O` gave a melting point of 58 to 59 °C.

Turning to `CSc1cc(OCCC[Si](C)(C)C)c(Cl)cc1NC=NC#N`, the melting point is 94 to 96 °C.

As to `NCCc1c[nH]c2ccc3c(=O)n(CC4CCCCO4)ccc3c12` (configuration not stated), the melting point fell in the range of 260 to 262 °C.

In turn, `CCCOCCOc1cc2c(-c3ccccc3)c(CC(=O)Nc3ccc(Cl)cc3C(F)(F)F)c(=O)oc2cc1Cl` displayed a melting point of 170 to 171 °C.

`Cc1cccc(-c2nccc(O)n2)c1` came in with a melting point of 148 to 150 °C.

As for `COC(=O)c1cc2c3c(cc([N+](=O)[O-])c2[nH]1)N(C(=O)c1cc2cc(OC)c(OC)c(OC)c2[nH]1)CC3CCl` (configuration not stated), the melting point lay in the range of 246 to 248 °C.

The molecule `Nc1ccn(CC(O)CO)c(=O)n1` (configuration not stated) registered a melting point of 169 to 171 °C.

In turn, `COc1cccc2c(=O)c(O)coc12` registered a melting point of 180 to 183 °C.

Molecule `CN1[C@H]2CC[C@@H]1[C@H](C=O)[C@@H](c1ccc(Cl)c(Cl)c1)C2` showed a melting point of 131 to 135 °C.

For the molecule `ON=Cc1cn2c(cnc3ccccc32)n1`, the melting point lay within 243 to 245 °C.

Consider `CCC(=CC(CSc1nc2ccccc2s1)=NO)C(C)[N+](=O)[O-]` (configuration not stated), for which the melting point fell in the range of 102 to 103 °C.

Turning to `CC(=O)NNc1nc(C(F)(F)F)nc(-c2ccc(C)cc2)c1-c1ccccc1`, the melting point fell in the range of 147 to 152 °C.

`CC(=O)Nc1nc2c(s1)-c1nc(-c3ccccc3)ncc1C2` showed a melting point greater than 300 °C.

Consider `Cn1c(-c2ccc(C(=N)N)cc2)nc2cc(C(=O)NCCC(=O)O)ccc21`, for which the melting point was 247 to 249 °C.

As for `CN1CCC(N(C)c2ncc3ncnc(Nc4ccc(Cl)c([N+](=O)[O-])c4)c3n2)CC1`, the melting point was 210 to 215 °C.

Turning to `CCOc1nc(C2CC2)nc(OCC)c1C=O`, the melting point was in the range of 86 to 87 °C.

The molecule `CCOC(=O)c1[nH]c2cc(Cl)cc(Cl)c2c1NCC(=O)c1ccc([N+](=O)[O-])cc1` yielded a melting point of 283 to 286 °C.

In turn, `CN(C)Cc1ccc(SC2CCN(C(c3ccccc3)(c3ccccc3)c3ccccc3)CC2)cc1` showed a melting point of 163 °C.

Molecule `CN(C)C(=O)n1cc(C(=O)C2CSC(c3cccnc3)N2)c2ccc(Oc3ccc(F)cc3)cc21` (configuration not stated) yielded a melting point of 72 to 75 °C.

`NC(=O)c1ccc(CCCOCCCCCCNCC(O)c2cc(Cl)c(N)c(Cl)c2)cc1` (configuration not stated) yielded a melting point of 91 to 94 °C.

As for `COc1nn(-c2ccc(CBr)c(Cl)c2)nc1Cl`, the melting point fell in the range of 141 to 142 °C.

`Clc1cc(N2CCNCC2)nc(N2CCCC2)n1` registered a melting point of 89 to 100 °C.

In turn, `CC(=O)OCC(=O)C1(O)C(C)CC2C3CCC4CC(=O)CCC4(C)C3CCC21C` (configuration not stated) returned a melting point of 125 °C.

`CC(C)=CC(=O)N[C@H]1CC[C@H](CCN2CCC(c3cccc4c3CCO4)CC2)CC1` registered a melting point of 177 °C.

As to `CC1=NN=C(C=Cc2ccc(C(F)(F)F)cc2)c2cc3c(cc2C1)OCO3`, the melting point is 188 to 191 °C.

For the molecule `NC(=O)C1=C(NCc2ccccc2)CCCC1`, the melting point was 73 to 74 °C.

The molecule `FC(F)(F)c1n[nH]c(-c2nc3ccccc3s2)n1` registered a melting point of 254 °C.

Molecule `CC(C)(C)OC(=O)C=CC1C(C(=O)OC(C#N)c2ccc(F)c(Oc3ccccc3)c2)C1(C)C` (configuration not stated) displayed a melting point of 114 °C.

Turning to `CCOC(=O)c1ccc([N+](=O)[O-])cc1CBr`, the melting point is 65 to 66 °C.

In turn, `CCSCc1ccc(CC(N)C(=O)O)cc1` (racemic) displayed a melting point of 251 °C.

Molecule `CC(C)c1c(C(=O)c2ccccc2)n(COCc2ccccc2)c(=O)[nH]c1=O` displayed a melting point of 184 °C.

Turning to `COc1ccc(-c2ccc(C3C(CCC(O)c4ccc(F)cc4)C(=O)N3c3ccc(F)cc3)cc2)cc1` (configuration not stated), the melting point is 103 °C.

As to `Cc1ccc(-c2ccc(S(=O)(=O)Nc3cc(C)no3)cc2)cc1`, the melting point lay in the range of 194 to 198 °C.

For the molecule `CCOC(=O)c1cn(CC(F)(F)F)c2cc3c(cc2c1=O)OCO3`, the melting point was in the range of 204 to 206 °C.

For `CCC1=NC(NC(=O)Nc2cccc(C)c2)C(=O)N(CC(=O)N2CCCCCCC2)c2c(C)cccc21` (configuration not stated), the melting point lay in the range of 189 to 190 °C.

Molecule `CS(=O)(=O)c1ccc(N2CCC(N3CCCC3)CC2)cc1` had a melting point of 166 to 170 °C.

`CCCCc1nc2c(N)nc3ccccc3c2n1CCCC(=NO)c1ccccc1`: the melting point fell in the range of 242 to 244 °C.

In turn, `NC(=O)Nc1ccc2c(c1)C(=O)C1(CC1)O2` gave a melting point of 250 to 252 °C.

Regarding `CCOC(=O)c1ccccc1Cn1c(C(=O)O)cc2ccccc21`, the melting point came to 136 °C.

Consider `COc1ccc(C(=O)c2cccs2)c2occ(C)c12`, for which the melting point is 131 to 134 °C.

`C=CCN1C2CCC3C1CCC2N3C(c1ccc(C(=O)N2CCCC2)cc1)c1cccc(OC)c1` (configuration not stated) displayed a melting point of 126 to 128 °C.

As for `COc1ccc(-c2cncc(C#N)c2Oc2ccc3[nH]ccc3c2)cc1OC`, the melting point was 192 to 194 °C.

In the case of `CC(=O)Nc1nccc(Oc2ccc3c(C(=O)Nc4cccc(C(F)(F)F)c4)cccc3c2)n1`, the melting point was 216 to 217 °C.

The molecule `COC(=O)CCCc1cc2nc(Cl)ccc2n1S(=O)(=O)c1ccc(OC)cc1Cl` displayed a melting point of 116 to 118 °C.

In the case of `O=C1NCCc2c1cc1n2CCCC1`, the melting point lay within 195 to 197 °C.

As to `COC(=O)c1ccc(C=C(CBr)C(=O)OC(C)(C)C)cc1`, the melting point came to 78 °C.

The molecule `CC1(c2ccc3cc(Br)ccc3c2)OCCO1` had a melting point of 80 to 82 °C.

Regarding `CC1(C)CCC(C)(C)c2cc(COc3ccc(C(=O)O)cc3-c3ccccc3)ccc21`, the melting point is 195 to 198 °C.

For `Cc1cccc(C)c1NC(=S)CC(=O)Nc1ccc(-c2ncn(-c3ccc(OC(F)(F)F)cc3)n2)cc1`, the melting point is 178 to 182 °C.
